Values of other authors in US20100256082A1, “Metallo-hydrolase inhibitors using metal binding moietes in combination with targeting moieties” (Viamet Pharmaceuticals, Inc., priority 2006, published 2010).

Legend:
[1] = tested on: RDP; details: read-out: 50% inhibitory concentration; reversible, competitive inhibitor of RDP
[2] = target: PDE3A (Homo sapiens, UniProt Q14432, T844A); details: T844 to Ala mutant versus PDE3A
Chain of PDE3A (Q14432 whole entry T844A): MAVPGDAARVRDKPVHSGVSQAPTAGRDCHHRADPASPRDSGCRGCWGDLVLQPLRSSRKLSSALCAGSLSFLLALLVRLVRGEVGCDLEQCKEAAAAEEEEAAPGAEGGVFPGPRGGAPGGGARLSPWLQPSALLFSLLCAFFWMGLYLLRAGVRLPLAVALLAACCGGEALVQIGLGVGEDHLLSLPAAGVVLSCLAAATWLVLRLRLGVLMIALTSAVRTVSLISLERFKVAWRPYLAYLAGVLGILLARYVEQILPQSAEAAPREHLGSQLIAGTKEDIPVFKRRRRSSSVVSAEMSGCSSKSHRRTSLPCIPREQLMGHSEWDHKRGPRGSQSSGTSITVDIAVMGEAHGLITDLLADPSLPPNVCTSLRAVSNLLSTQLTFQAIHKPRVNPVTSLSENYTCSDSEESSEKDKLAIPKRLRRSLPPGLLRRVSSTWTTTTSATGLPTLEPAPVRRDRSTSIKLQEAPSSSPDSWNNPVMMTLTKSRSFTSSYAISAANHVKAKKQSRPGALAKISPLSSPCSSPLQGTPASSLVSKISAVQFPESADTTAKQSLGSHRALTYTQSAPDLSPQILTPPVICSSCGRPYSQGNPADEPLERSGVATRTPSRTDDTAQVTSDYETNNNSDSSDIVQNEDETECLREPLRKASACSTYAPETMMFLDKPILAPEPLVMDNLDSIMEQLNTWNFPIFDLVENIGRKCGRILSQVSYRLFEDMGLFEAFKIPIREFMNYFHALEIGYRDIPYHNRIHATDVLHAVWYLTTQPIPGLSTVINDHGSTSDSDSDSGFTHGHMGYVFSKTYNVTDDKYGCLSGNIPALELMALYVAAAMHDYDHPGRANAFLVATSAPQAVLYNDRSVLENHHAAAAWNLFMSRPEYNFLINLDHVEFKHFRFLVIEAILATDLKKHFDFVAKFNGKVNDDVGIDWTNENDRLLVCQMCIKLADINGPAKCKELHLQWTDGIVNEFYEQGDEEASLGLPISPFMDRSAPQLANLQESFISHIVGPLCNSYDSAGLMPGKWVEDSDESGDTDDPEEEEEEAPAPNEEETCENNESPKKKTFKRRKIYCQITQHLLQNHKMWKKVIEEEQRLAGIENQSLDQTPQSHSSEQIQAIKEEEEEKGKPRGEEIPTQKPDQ

| SMILES | effect of mutation of T844 to Ala in PDE3A on the K [2] | further results |
| --- | --- | --- |
| CC1(C)C[C@@H]1C(=O)N/C(=C\CCCCSC[C@H](N)C(=O)O)C(=O)O [Cilastatin] | – | IC50 [1]: 50.1 mM |
| O=C1CCc2cc(OCCCCc3nnnn3C3CCCCC3)ccc2N1 [cilostazol] | – | increase in Ki on mutation of T844 to Ala in PDE3A [2]: 25 fold |
| Nc1nc2c(ncn2[C@@H]2O[C@@H]3COP(=O)(O)O[C@H]3[C@H]2O)c(=O)[nH]1 [cGMP] | no effect | – |
| Cc1[nH]c(=O)c(C#N)cc1-c1ccncc1 [milrinone] | no effect | – |
